{
  "source": "patent US6303596A",
  "about": "“Use of taurolidine for treatment of leukemias” (priority 2000, dated 2001)",
  "key": {"[1]": {"tested_on": "HL-60 cells", "assay": "trypan blue exclusion, HL-60", "format": "cell-based, human", "conditions": "HL-60, 25 μg/ml taurolidine, versus MM6, K562, Jurkat", "protocol": "FIGS. 7A and 7B depict cell viability and growth rates for HL-60 cell line following taurolidine treatment, in terms of % trypan blue negative cells and % cell number, respectively. Cells were treated with various concentrations of taurolidine for 4 hours in AIM-V+0.01% BCS. After aliquots were collected for LDH assay, the remainder of the culture was rinsed in HBSS and resuspended in RPMI+10% BCS without taurolidine. Counts of trypan blue-negative cells (FIG. 7A), and total cell number (FIG. 7B), were recorded daily thereafter (with the measurement at Day 1 being made immediately after the 4 hour taurolidine treatment). […] Doubling times were determined under each condition, and expressed as a percentage of the rate of doubling of untreated cells. […]\n(§1) In these experiments, integrity of cell membranes following taurolidine treatment was assessed by exclusion of trypan blue and by measuring the release of LDH in MM6, K-562, HL-60, and REH cells. […] A parallel aliquot of cells was lysed by three cycles of freeze/thaw and the quantity of LDH released was taken to be 100%. […]\nHL-60 cells treated with 50 μl taurolidine. In these samples, LDH present in the culture medium was 8.3±2.3% of that released by completely lysed cells, compared with 2.3±0.8% measured in control cultures. […]"}, "[2]": {"tested_on": "K-562", "assay": "LDH release (cell membrane integrity), K-562", "format": "cell-based", "conditions": "Homo sapiens, K562, 4 h, read-out: LDH (% of total)", "protocol": "FIGS. 6A and 6B depict cell viability and growth rates for K562 cell line following taurolidine treatment, in terms of % trypan blue negative cells and % cell number, respectively. Cells were treated with various concentrations of taurolidine for 4 hours in AIM-V+0.01% BCS. After aliquots were collected for LDH assay, the remainder of the culture was rinsed in HBSS and resuspended in RPMI+10% BCS without taurolidine. Counts of trypan blue-negative cells (FIG. 6A), and total cell number (FIG. 6B), were recorded daily thereafter (with the measurement at Day 1 being made immediately after the 4 hour taurolidine treatment). Conditions were: no treatment (open circles); 25 μg/ml taurolidine (closed circles); 50 μg/ml taurolidine (open squares); 100 μg/ml taurolidine (closed squares); and vehicle alone (closed triangles). Doubling times were determined under each condition, and expressed as a percentage of the rate of doubling of untreated cells. […]\nas §1\n^a LDH was measured immediately after four hour taurolidine treatment."}, "[3]": {"tested_on": "TNFα", "assay": "LPS-induced TNFα expression/secretion by MM6 cells, ELISA", "format": "cell-based, human", "conditions": "4 h", "protocol": "FIG. 3A and FIG. 3B are graphs depicting taurolidine inhibition of LPS-induced alpha […] (TNFα) expression by monocytic cells as determined by assay procedures. FIG. 3A represents MM6 cells; FIG. 3B represents PBMC. The cells were induced with LPS (hatched bars: 100 ng/ml LPS in RPMI+10% BCS; solid bars: 10 ng/ml in AIM-V+0.01% BCS) in the presence of varying concentrations of taurolidine. After four hours, cell supernatants were collected for TNFα ELISA. Data are expressed as percent of TNFα levels measured in cell cultures treated with LPS alone (no taurolidine or vehicle). Experiments were performed with duplicate samples and were repeated at least three times. Values shown in FIG. 3A are from a representative experiment. Values shown in FIG. 3B are mean±SEM of three experiments.\nAll cells were cultured in a 5% CO2 atmosphere at 37° C. MM6 cells were grown in RPMI supplemented with 10% BCS, 2 mM L-glutamine, and 50 μg/ml gentamicin (RPMI+10% BCS). In some experiments, MM6 cells were rinsed once with HBSS without Ca^++ or Mg^++ and once with AIM-V before finally being resuspended in AIM-V supplemented with 0.01% BCS (AIM-V+0.01% BCS). […] AIM-V was supplemented with a low amount of BCS (0.01%) in order to provide a source of LPS-binding protein, which enhances the response of monocytic cells to LPS. Ulevitch, R. J. and Tobias, P. S., \"Recognition of endotoxin by cells leading to transmembrne signaling,\" Curr Opin Immunol 6:125 (1994). HL-60, REH, and Jurkat were cultured in RPMI supplemented with 10% heat inactivated fetal bovine serum (FBS), 2 mM L-glutamine, and 50 μg/ml gentamicin. ECV304 were cultured in M199 supplemented with 10% FBS, mM L-glutamine, and 50 μg/ml gentamicin. GM5387 was cultured in MEM supplemented with 20% FBS, 2 mM L-glutamine, and 50 μg/ml gentamicin.\nFor induction of TF or TNFα expression, MM6 cells or PBMC were cultured either in RPMI supplemented with 10% BCS or in AIM-V+0.01% BCS, and stimulated by adding LPS to final concentrations of 10 to 100 ng/ml. […]"}},
  "data": [
    {"smiles": "O=S1(=O)CCN(CN2CCS(=O)(=O)NC2)CN1", "note": "[taurolidine, 4,4'-methylenebis(perhydro-1,2,4-thiadiazin 1,1-dioxide)]", "values": [
      {"measurement": "trypan blue staining after treatment, sensitivity", "setting": "[1]", "result": "more sensitive"},
      {"measurement": "cytotoxicity at 50 µg/mL", "setting": "[2]; K-562, 50 μg/ml", "result": 6, "unit": "%"},
      {"measurement": "cytotoxicity at 100 µg/mL", "setting": "[2]; K-562, 100 μg/ml", "result": 8, "unit": "%"},
      {"measurement": "effect on LPS-induced TNFα secretion", "setting": "[3]; MM6, intermediate concentrations, particularly 25 μg/ml taurolidine", "result": "markedly stimulating TNFα secretion"},
      {"measurement": "inhibition of LPS-induced TNFα secretion", "setting": "[3]; MM6, taurolidine 75 μg/ml", "result": "maximal inhibition"}
    ]}
  ]
}
